Test results taken from patent US20170051149A1, “AZOARYLS AS REVERSIBLY MODULATABLE TUBULIN INHIBITORS” (ECOLE NORMALE SUPERIEURE DE LYON, priority 2014, published 2017).

What was measured:
HEK-293T cells = experiment: MTT assay, light-dependent cell proliferation; assay type: cell-based; conditions: 72 h
HEK-293 = experiment: cell cycle analysis by PI flow cytometry; assay type: cell-based; conditions: 15 nM, 30 h
Procedure: (§1) The effect of compound I.1 on cell cycle progression was assessed by flow cytometry. Briefly, following the application of compound I.1 and exposure to the indicated light regime, cells were harvested on ice and incubated in a hypotonic buffer [0.1% sodium citrate, 0.1% Triton X-100 and 50 μg/mL propidium iodide (PI)] for 30 min at 4° C. Following the PI staining cells were analysed by flow cytometry using FACSCalibur flow cytometer (Becton Dickinson, Heidelberg, Germany) and Cell Quest Pro Software (Becton Dickinson). Subsequently the cell cycle analysis was performed using the FlowJo software (Tree Star Inc., Ashland, Oreg., USA).

HeLa [1] = experiment: cell cycle analysis by PI flow cytometry; assay type: cell-based; conditions: 15 nM, 30 h
Procedure: as §1

MDA-MB-231 cells = experiment: cell cycle analysis by PI flow cytometry; assay type: cell-based; conditions: 15 nM, 30 h
Procedure: as §1

HeLa cells [2] = experiment: MTT assay; assay type: cell-based; conditions: 50 nM, 48 h
Description: The cytotoxic properties of I.1 were subsequently confirmed with another method, using the quantification of mitochondrial dehydrogenase activity of cells as determined by the level of 3-(4.5-dimethylthiazol-2-yl)-2.5-diphenyl tetrazolium bromide (MTT) reduction to its purple formazan, according to standard protocol^[30]. […] Cells were kept in the dark, or exposed to a pulsed toxic regime of 390 nm only, or exposed to a strong rescue protocol with pulses of 390 nm then 505 nm light. Pulses of light were applied every 30 s; 390 nm light pulses lasted 150 ms every 30 s, while the 505 nm light pulses were applied for 500 ms; in the strong rescue regime, the 505 nm pulse was synchronised so that it began immediately after the 390 nm pulse ended.
Cellular viability was measured 48 h later, namely, cells were incubated with MTT for three hours and after dissolution of the formazan crystals with DMSO, absorbance at 550 nm was measured using a FLUOstar Omega microplate reader. Results are shown in Table 5 below and are expressed as a fold growth relative to the control growth of the cells treated only with a co-solvent (0.5% MeCN) and represent mean and standard deviation of quadruplicates of the optical density values, which are proportional to the cell number.

MDA-MB-231 = experiment: membrane permeability, PI uptake in nonpermeabilized cells; assay type: cell-based; conditions: 15 nM, 70 h
Procedure: (§2) Membrane integrity was assessed as a marker of cellular viability, via examining the uptake of propidium iodide (PI) in nonpermeabilized cells according to a standard protocol. Namely, cells were harvested and incubated with 5 μg/mL PI in PBS containing 2% FCS (foetal calf serum), and immediately analysed by flow cytometry using a FACSCalibur flow cytometer.

Jurkat cells [3] = experiment: as above; assay type: cell-based; conditions: 15 nM, 48 h
Procedure: as §2

HeLa [4] = experiment: as above; assay type: cell-based; conditions: 15 nM, 70 h
Procedure: as §2

Jurkat cells [5] = experiment: nuclear fragmentation (subG1, Nicoletti), induction of apoptosis; assay type: cell-based; conditions: 48 h
Procedure: (§3) Different cell types, including MDA-MB-231, Jurkat, HeLa and HepG2 cells, were treated with indicated concentrations of compound I.1 and exposed to a 390 nm toxic regime, a rescue regime with both 390 nm and 515 nm light, or kept in the dark. Following the treatment, cells were stained with PI and the percentage of cells containing a hypodiploid amount of DNA (subG1 phase of cell cycle), was determined. Briefly, prior to analysis, cells were harvested on ice and incubated in a hypotonic buffer [0.1% sodium citrate, 0.1% Triton X-100 and 50 μg/mL propidium iodide (PI)] for 30 min at 4° C. Following the PI staining cells were analysed by flow cytometry using FACSCalibur flow cytometer (Becton Dickinson, Heidelberg, Germany) and Cell Quest Pro Software (Becton Dickinson).

HeLa cells [6] = experiment: as above; assay type: cell-based; conditions: 15 nM, 30 h
Procedure: as §3

tubulin = conditions: trans isomer; read-out: in vitro IC50, tubulin polymerisation; cited from earlier work

COc1ccc(/C=C\c2cc(OC)c(OC)c(OC)c2)cc1OP(=O)(O)O [CA4P, fosbretabulin, reference compound]
fold growth relative to cosolvent control (MTT) (HEK-293T cells; 5 nM, 390 nm, 0.35 s every 2 min): 1.29
fold growth relative to cosolvent control (MTT) (HEK-293T cells; 5 nM, 390 nm, 0.35s then 490 nm, 3 s (rescue) every 2 min): 1.28
fold growth relative to cosolvent control (MTT) (HEK-293T cells; 5 nM, 410 nm, 0.35 s every 2 min): 1.19
fold growth relative to cosolvent control (MTT) (HEK-293T cells; 5 nM, 410 nm, 0.35 s then 505 nm, 3 s (rescue) every 2 min): 1.20
fold growth relative to cosolvent control (MTT) (HEK-293T cells; 5 nM, 475 nm, 3 s every 2 min): 1.12
fold growth relative to cosolvent control (MTT) (HEK-293T cells; 5 nM, 490 nm, 3 s every 2 min): 1.43
fold growth relative to cosolvent control (MTT) (HEK-293T cells; 5 nM, 505 nm, 3 s every 2 min): 1.07
fold growth relative to cosolvent control (MTT) (HEK-293T cells; 5 nM, 525 nm, 3 s every 2 min): 0.86
fold growth relative to cosolvent control (MTT) (HEK-293T cells; 5 nM, Dark): 0.82
fold growth relative to cosolvent control (MTT) (HEK-293T cells; 15 nM, 390 nm, 0.35 s every 2 min): 0.88
fold growth relative to cosolvent control (MTT) (HEK-293T cells; 15 nM, 390 nm, 0.35s then 490 nm, 3 s (rescue) every 2 min): 0.82
fold growth relative to cosolvent control (MTT) (HEK-293T cells; 15 nM, 410 nm, 0.35 s every 2 min): 0.80
fold growth relative to cosolvent control (MTT) (HEK-293T cells; 15 nM, 410 nm, 0.35 s then 505 nm, 3 s (rescue) every 2 min): 0.81
fold growth relative to cosolvent control (MTT) (HEK-293T cells; 15 nM, 475 nm, 3 s every 2 min): 0.70
fold growth relative to cosolvent control (MTT) (HEK-293T cells; 15 nM, 490 nm, 3 s every 2 min): 0.97
fold growth relative to cosolvent control (MTT) (HEK-293T cells; 15 nM, 505 nm, 3 s every 2 min): 0.75
fold growth relative to cosolvent control (MTT) (HEK-293T cells; 15 nM, 525 nm, 3 s every 2 min): 0.81
fold growth relative to cosolvent control (MTT) (HEK-293T cells; 15 nM, Dark): 0.79
mean % G2/M phase (HEK-293; 390 nm (1 s every 15 min)): 70.1%
mean % G2/M phase (HEK-293; dark): 72.0%
mean % G2/M phase (HeLa [1]; 390 nm (1 s every 15 min)): 69.5%
mean % G2/M phase (HeLa [1]; dark): 69.0%
mean % G2/M phase (MDA-MB-231 cells; 390 nm (1 s every 15 min)): 50.9%
mean % G2/M phase (MDA-MB-231 cells; dark): 51.3%
mean fold growth (HeLa cells [2]; 390 nm (150 ms every 30 s)): 0.38 fold
mean fold growth (HeLa cells [2]; Dark): 0.29 fold
mean % cells PI+ (MDA-MB-231; 390 nm (1 s every 15 min)): 43.2%
mean % cells PI+ (MDA-MB-231; dark): 45.1%
mean % cells PI+ (Jurkat cells [3]; 390 nm (350 ms every 5 min)): 5.7%
mean % cells PI+ (Jurkat cells [3]; dark): 8.0%
mean % cells PI+ (HeLa [4]; 390 nm (1 s every 15 min)): 63.9%
mean % cells PI+ (HeLa [4]; dark): 62.5%
mean % subG1 phase (Jurkat cells [5]; 5 nM, 390 nm (350 ms pulses every 5 min)): 40.4%
mean % subG1 phase (Jurkat cells [5]; 5 nM, dark): 37.5%
mean % subG1 phase (Jurkat cells [5]; 15 nM, 390 nm (350 ms pulses every 5 min)): 91.5%
mean % subG1 phase (Jurkat cells [5]; 15 nM, dark): 89.7%
mean % subG1 phase (HeLa cells [6]; 390 nm light (1 s pulses every 15 min)): 12.3%
mean % subG1 phase (HeLa cells [6]; dark): 11.5%

CCCCCCCOc1ccc(/N=N/c2ccc(CNN[C@H](C=O)CCCCN)cc2)cc1 [P1]
IC50 (tubulin): ~100 µM
